From ChEMBL document CHEMBL3421558, “Structure activity relationship of substituted 1,5-naphthyridine analogs of oxabicyclooctane-linked novel bacterial topoisomerase inhibitors as broad-spectrum antibacterial agents (Part-4)” (Bioorg Med Chem Lett, 2015)
In brackets after ≈: the same amount, converted by molar mass.

test system: Staphylococcus aureus; assay: Antimicrobial activity against Staphylococcus aureus Smith by micro broth dilution or agar based method; format: functional; conditions: Staphylococcus aureus, Smith; read-out: MIC

Structure (SMILES)	MIC
O=C1COc2ccc(CNC34CCC(CCc5c(F)cnc6ccc(C(=O)O)nc56)(CC3)OC4)nc2N1	16 µg/mL (≈ 31.5 µM)
COc1ccc2ncc(C#N)c(CCC34CCC(NCc5ccc6c(n5)NC(=O)CO6)(CC3)CO4)c2n1	0.016 µg/mL (≈ 0.032 µM)
COc1cc(OC)c2nccc(CCC34CCC(NCc5ccc6c(n5)NC(=O)CO6)(CC3)CO4)c2n1	0.5 µg/mL (≈ 0.989 µM)
COc1ccc2nc(N3CCN(C)CC3)c(F)c(CCC34CCC(NCc5ccc6c(n5)NC(=O)CO6)(CC3)CO4)c2n1	32 µg/mL (≈ 54.1 µM)
O=C1COc2ccc(CNC34CCC(CCc5ccnc6cc(F)cnc56)(CC3)OC4)nc2N1	16 µg/mL (≈ 34.5 µM)
COc1cc2ncc(F)c(CCC34CCC(NCc5ccc6c(n5)NC(=O)CO6)(CC3)CO4)c2nc1OC	0.5 µg/mL (≈ 0.955 µM)
COc1nc2c(CCC34CCC(NCc5ccc6c(n5)NC(=O)CO6)(CC3)CO4)ccnc2cc1Cl	0.5 µg/mL (≈ 0.98 µM)
COc1nc2c(CCC34CCC(NCc5ccc6c(n5)NC(=O)CO6)(CC3)CO4)ccnc2cc1F	0.125 µg/mL (≈ 0.253 µM)
O=C1COc2ccc(CNC34CCC(CCc5ccnc6ccc(C(F)(F)F)nc56)(CC3)OC4)nc2N1	2 µg/mL (≈ 3.89 µM)

test system: Staphylococcus aureus; assay: Antimicrobial activity against methicillin-resistant Staphylococcus aureus OIT971 by micro broth dilution or agar based method; format: functional; conditions: not given

Structure (SMILES)	MIC
O=C1COc2ccc(CNC34CCC(CCc5c(F)cnc6ccc(C(=O)O)nc56)(CC3)OC4)nc2N1	16 µg/mL (≈ 31.5 µM)
COc1ccc2ncc(C#N)c(CCC34CCC(NCc5ccc6c(n5)NC(=O)CO6)(CC3)CO4)c2n1	0.008 µg/mL (≈ 0.016 µM)
COc1cc(OC)c2nccc(CCC34CCC(NCc5ccc6c(n5)NC(=O)CO6)(CC3)CO4)c2n1	0.25 µg/mL (≈ 0.494 µM)
COc1ccc2nc(N3CCN(C)CC3)c(F)c(CCC34CCC(NCc5ccc6c(n5)NC(=O)CO6)(CC3)CO4)c2n1	16 µg/mL (≈ 27 µM)
O=C1COc2ccc(CNC34CCC(CCc5ccnc6cc(F)cnc56)(CC3)OC4)nc2N1	8 µg/mL (≈ 17.3 µM)
COc1cc2ncc(F)c(CCC34CCC(NCc5ccc6c(n5)NC(=O)CO6)(CC3)CO4)c2nc1OC	0.25 µg/mL (≈ 0.477 µM)
COc1nc2c(CCC34CCC(NCc5ccc6c(n5)NC(=O)CO6)(CC3)CO4)ccnc2cc1Cl	0.25 µg/mL (≈ 0.49 µM)
COc1nc2c(CCC34CCC(NCc5ccc6c(n5)NC(=O)CO6)(CC3)CO4)ccnc2cc1F	0.063 µg/mL (≈ 0.128 µM)
O=C1COc2ccc(CNC34CCC(CCc5ccnc6ccc(C(F)(F)F)nc56)(CC3)OC4)nc2N1	1 µg/mL (≈ 1.95 µM)

test system: Streptococcus pneumoniae; assay: Antimicrobial activity against Streptococcus pneumoniae IID553 by micro broth dilution or agar based method; format: functional; conditions: Streptococcus pneumoniae, IID553; read-out: MIC

Structure (SMILES)	MIC
O=C1COc2ccc(CNC34CCC(CCc5c(F)cnc6ccc(C(=O)O)nc56)(CC3)OC4)nc2N1	16 µg/mL (≈ 31.5 µM)
COc1ccc2ncc(C#N)c(CCC34CCC(NCc5ccc6c(n5)NC(=O)CO6)(CC3)CO4)c2n1	0.125 µg/mL (≈ 0.25 µM)
COc1cc(OC)c2nccc(CCC34CCC(NCc5ccc6c(n5)NC(=O)CO6)(CC3)CO4)c2n1	8 µg/mL (≈ 15.8 µM)
COc1ccc2nc(N3CCN(C)CC3)c(F)c(CCC34CCC(NCc5ccc6c(n5)NC(=O)CO6)(CC3)CO4)c2n1	32 µg/mL (≈ 54.1 µM)
O=C1COc2ccc(CNC34CCC(CCc5ccnc6cc(F)cnc56)(CC3)OC4)nc2N1	32 µg/mL (≈ 69 µM)
COc1cc2ncc(F)c(CCC34CCC(NCc5ccc6c(n5)NC(=O)CO6)(CC3)CO4)c2nc1OC	8 µg/mL (≈ 15.3 µM)
COc1nc2c(CCC34CCC(NCc5ccc6c(n5)NC(=O)CO6)(CC3)CO4)ccnc2cc1Cl	8 µg/mL (≈ 15.7 µM)
COc1nc2c(CCC34CCC(NCc5ccc6c(n5)NC(=O)CO6)(CC3)CO4)ccnc2cc1F	2 µg/mL (≈ 4.05 µM)
O=C1COc2ccc(CNC34CCC(CCc5ccnc6ccc(C(F)(F)F)nc56)(CC3)OC4)nc2N1	32 µg/mL (≈ 62.3 µM)

test system: Enterococcus faecium; assay: Antimicrobial activity against VanA expressing vancomycin-resistant Enterococcus faecium by micro broth dilution or agar based method; format: functional; conditions: Enterococcus faecium; read-out: MIC

Structure (SMILES)	MIC
O=C1COc2ccc(CNC34CCC(CCc5c(F)cnc6ccc(C(=O)O)nc56)(CC3)OC4)nc2N1	16 µg/mL (≈ 31.5 µM)
COc1ccc2ncc(C#N)c(CCC34CCC(NCc5ccc6c(n5)NC(=O)CO6)(CC3)CO4)c2n1	0.5 µg/mL (≈ 0.999 µM)
COc1cc(OC)c2nccc(CCC34CCC(NCc5ccc6c(n5)NC(=O)CO6)(CC3)CO4)c2n1	8 µg/mL (≈ 15.8 µM)
COc1ccc2nc(N3CCN(C)CC3)c(F)c(CCC34CCC(NCc5ccc6c(n5)NC(=O)CO6)(CC3)CO4)c2n1	32 µg/mL (≈ 54.1 µM)
O=C1COc2ccc(CNC34CCC(CCc5ccnc6cc(F)cnc56)(CC3)OC4)nc2N1	32 µg/mL (≈ 69 µM)
COc1cc2ncc(F)c(CCC34CCC(NCc5ccc6c(n5)NC(=O)CO6)(CC3)CO4)c2nc1OC	8 µg/mL (≈ 15.3 µM)
COc1nc2c(CCC34CCC(NCc5ccc6c(n5)NC(=O)CO6)(CC3)CO4)ccnc2cc1Cl	16 µg/mL (≈ 31.4 µM)
COc1nc2c(CCC34CCC(NCc5ccc6c(n5)NC(=O)CO6)(CC3)CO4)ccnc2cc1F	4 µg/mL (≈ 8.1 µM)
O=C1COc2ccc(CNC34CCC(CCc5ccnc6ccc(C(F)(F)F)nc56)(CC3)OC4)nc2N1	16 µg/mL (≈ 31.2 µM)

test system: Escherichia coli; assay: Antimicrobial activity against Escherichia coli ATCC 25922 by micro broth dilution or agar based method; format: functional; conditions: Escherichia coli, ATCC 25922; read-out: MIC

Structure (SMILES)	MIC
O=C1COc2ccc(CNC34CCC(CCc5c(F)cnc6ccc(C(=O)O)nc56)(CC3)OC4)nc2N1	16 µg/mL (≈ 31.5 µM)
COc1ccc2ncc(C#N)c(CCC34CCC(NCc5ccc6c(n5)NC(=O)CO6)(CC3)CO4)c2n1	2 µg/mL (≈ 4 µM)
COc1cc(OC)c2nccc(CCC34CCC(NCc5ccc6c(n5)NC(=O)CO6)(CC3)CO4)c2n1	32 µg/mL (≈ 63.3 µM)
COc1ccc2nc(N3CCN(C)CC3)c(F)c(CCC34CCC(NCc5ccc6c(n5)NC(=O)CO6)(CC3)CO4)c2n1	32 µg/mL (≈ 54.1 µM)
O=C1COc2ccc(CNC34CCC(CCc5ccnc6cc(F)cnc56)(CC3)OC4)nc2N1	32 µg/mL (≈ 69 µM)
COc1cc2ncc(F)c(CCC34CCC(NCc5ccc6c(n5)NC(=O)CO6)(CC3)CO4)c2nc1OC	8 µg/mL (≈ 15.3 µM)
COc1nc2c(CCC34CCC(NCc5ccc6c(n5)NC(=O)CO6)(CC3)CO4)ccnc2cc1Cl	32 µg/mL (≈ 62.7 µM)
COc1nc2c(CCC34CCC(NCc5ccc6c(n5)NC(=O)CO6)(CC3)CO4)ccnc2cc1F	4 µg/mL (≈ 8.1 µM)
O=C1COc2ccc(CNC34CCC(CCc5ccnc6ccc(C(F)(F)F)nc56)(CC3)OC4)nc2N1	32 µg/mL (≈ 62.3 µM)

test system: Acinetobacter baumannii; assay: Antimicrobial activity against Acinetobacter baumannii IID876 by micro broth dilution or agar based method; format: functional; conditions: Acinetobacter baumannii, IID876; read-out: MIC

Structure (SMILES)	MIC
O=C1COc2ccc(CNC34CCC(CCc5c(F)cnc6ccc(C(=O)O)nc56)(CC3)OC4)nc2N1	16 µg/mL (≈ 31.5 µM)
COc1ccc2ncc(C#N)c(CCC34CCC(NCc5ccc6c(n5)NC(=O)CO6)(CC3)CO4)c2n1	1 µg/mL (≈ 2 µM)
COc1cc(OC)c2nccc(CCC34CCC(NCc5ccc6c(n5)NC(=O)CO6)(CC3)CO4)c2n1	8 µg/mL (≈ 15.8 µM)
COc1ccc2nc(N3CCN(C)CC3)c(F)c(CCC34CCC(NCc5ccc6c(n5)NC(=O)CO6)(CC3)CO4)c2n1	32 µg/mL (≈ 54.1 µM)
O=C1COc2ccc(CNC34CCC(CCc5ccnc6cc(F)cnc56)(CC3)OC4)nc2N1	16 µg/mL (≈ 34.5 µM)
COc1cc2ncc(F)c(CCC34CCC(NCc5ccc6c(n5)NC(=O)CO6)(CC3)CO4)c2nc1OC	8 µg/mL (≈ 15.3 µM)
COc1nc2c(CCC34CCC(NCc5ccc6c(n5)NC(=O)CO6)(CC3)CO4)ccnc2cc1Cl	32 µg/mL (≈ 62.7 µM)
COc1nc2c(CCC34CCC(NCc5ccc6c(n5)NC(=O)CO6)(CC3)CO4)ccnc2cc1F	2 µg/mL (≈ 4.05 µM)
O=C1COc2ccc(CNC34CCC(CCc5ccnc6ccc(C(F)(F)F)nc56)(CC3)OC4)nc2N1	8 µg/mL (≈ 15.6 µM)

test system: Pseudomonas aeruginosa; assay: Antimicrobial activity against Pseudomonas aeruginosa PAO1 by micro broth dilution or agar based method; format: functional; conditions: Pseudomonas aeruginosa, PAO1; read-out: MIC

Structure (SMILES)	MIC
O=C1COc2ccc(CNC34CCC(CCc5c(F)cnc6ccc(C(=O)O)nc56)(CC3)OC4)nc2N1	16 µg/mL (≈ 31.5 µM)
COc1ccc2ncc(C#N)c(CCC34CCC(NCc5ccc6c(n5)NC(=O)CO6)(CC3)CO4)c2n1	4 µg/mL (≈ 7.99 µM)
COc1cc(OC)c2nccc(CCC34CCC(NCc5ccc6c(n5)NC(=O)CO6)(CC3)CO4)c2n1	64 µg/mL (≈ 127 µM)
COc1ccc2nc(N3CCN(C)CC3)c(F)c(CCC34CCC(NCc5ccc6c(n5)NC(=O)CO6)(CC3)CO4)c2n1	32 µg/mL (≈ 54.1 µM)
O=C1COc2ccc(CNC34CCC(CCc5ccnc6cc(F)cnc56)(CC3)OC4)nc2N1	32 µg/mL (≈ 69 µM)
COc1cc2ncc(F)c(CCC34CCC(NCc5ccc6c(n5)NC(=O)CO6)(CC3)CO4)c2nc1OC	8 µg/mL (≈ 15.3 µM)
COc1nc2c(CCC34CCC(NCc5ccc6c(n5)NC(=O)CO6)(CC3)CO4)ccnc2cc1Cl	32 µg/mL (≈ 62.7 µM)
COc1nc2c(CCC34CCC(NCc5ccc6c(n5)NC(=O)CO6)(CC3)CO4)ccnc2cc1F	16 µg/mL (≈ 32.4 µM)
O=C1COc2ccc(CNC34CCC(CCc5ccnc6ccc(C(F)(F)F)nc56)(CC3)OC4)nc2N1	64 µg/mL (≈ 125 µM)

test system: Staphylococcus aureus; assay: Potency index, ratio of MIC for quinolone-resistant Staphylococcus aureus MS5935 to MIC for quinolone-[…]; format: functional; conditions: not given

Structure (SMILES)	Ratio
COc1ccc2nc(N3CCN(C)CC3)c(F)c(CCC34CCC(NCc5ccc6c(n5)NC(=O)CO6)(CC3)CO4)c2n1	<4
